Reference: US20240199635A1, “TETRAHYDROTHIENO PYRIDINE DERIVATIVES AS DDRS INHIBITORS” (CHIESI FARMACEUTICI S.P.A., priority 2021, published 2024)

Experiments:
DDR1 [1] = target: T1, DDR1 (Homo sapiens (Human), UniProt Q08345); experiment: DDR1 binding assay (LanthaScreen Europium Kinase Binding assay); conditions: potency class, read-out: Ki DDR1
Description: (§1) DDR1 and DDR2 binding assays were performed using Life Technologies LanthaScreen™ Europium Kinase Binding assay. The compounds were incubated with 5 nM DDR1 (Carna Biosciences) or 5 nM DDR2 (Life Technologies) for 1 hour at room temperature in white 384-well OptiPlate (PerkinElmer), containing 20 nM or 10 nM Kinase Tracer 178 respectively and 2 nM Europium labelled anti-GST antibody (Life Technologies) in assay buffer (50 mM HEPES pH 7.5, 10 mM MgCl2, 1 mM EGTA and 0.01% BRIJ35).
(§2) The ratio of fluorescence emission 665 nm/615 nm after excitation at 340 nm was obtained using the Tecan Spark 20M plate reader. IC50 values were determined in GraphPad Prism 7.0 software, using 4 parameter model: log(inhibitor) vs. response. IC50 values were converted in Ki using the Cheng-Prusoff equation (Ki=IC50/(1+[Tracer]/Kd).

DDR1 [2] = target: T1, DDR1; experiment: DDR1 cell based assay (PathHunter U2OS DDR1 assay); conditions: U2OS-DDR1 cells, Type II Collagen stimulation, potency class
Description: The inhibition of DDR1 receptor activation by compounds was evaluated by PathHunter® U2OS DDR1 assay (Eurofins DiscoverX), according to the manufacturer's instructions. Briefly, U2OS-DDR1 cells were seeded in white 384-well plates at a density of 5000 cells/well and incubated for 2 hours at 37° C. and 5% CO2. Cells were then treated with compounds at different concentrations and incubated for 30 minutes, before stimulation with bovine Type II Collagen 20 μg/ml and incubation overnight at 37° C. and 5% CO2. PathHunter Detection Reagents were prepared according to the protocol provided by DiscoverX and 20 μl/well of this mix were added to each well. After incubating the plates for 1 hour at room temperature in the dark, luminescence signal was acquired with a plate reader. Raw data were normalized to vehicle control (0% for normalization) and positive control (100% for normalization; cells treated with 20 μg/ml collagen II) and IC50 parameters were calculated in GraphPad Prism 8.0 software, using sigmoidal dose-response curve fitting with variable slope.

DDR2 = DDR2 (Homo sapiens (Human), UniProt Q16832); experiment: DDR2 binding assay (LanthaScreen Europium Kinase Binding assay); conditions: potency class, read-out: Ki DDR2
Description: as §1, §2

T1 sequence (Q08345 19-913): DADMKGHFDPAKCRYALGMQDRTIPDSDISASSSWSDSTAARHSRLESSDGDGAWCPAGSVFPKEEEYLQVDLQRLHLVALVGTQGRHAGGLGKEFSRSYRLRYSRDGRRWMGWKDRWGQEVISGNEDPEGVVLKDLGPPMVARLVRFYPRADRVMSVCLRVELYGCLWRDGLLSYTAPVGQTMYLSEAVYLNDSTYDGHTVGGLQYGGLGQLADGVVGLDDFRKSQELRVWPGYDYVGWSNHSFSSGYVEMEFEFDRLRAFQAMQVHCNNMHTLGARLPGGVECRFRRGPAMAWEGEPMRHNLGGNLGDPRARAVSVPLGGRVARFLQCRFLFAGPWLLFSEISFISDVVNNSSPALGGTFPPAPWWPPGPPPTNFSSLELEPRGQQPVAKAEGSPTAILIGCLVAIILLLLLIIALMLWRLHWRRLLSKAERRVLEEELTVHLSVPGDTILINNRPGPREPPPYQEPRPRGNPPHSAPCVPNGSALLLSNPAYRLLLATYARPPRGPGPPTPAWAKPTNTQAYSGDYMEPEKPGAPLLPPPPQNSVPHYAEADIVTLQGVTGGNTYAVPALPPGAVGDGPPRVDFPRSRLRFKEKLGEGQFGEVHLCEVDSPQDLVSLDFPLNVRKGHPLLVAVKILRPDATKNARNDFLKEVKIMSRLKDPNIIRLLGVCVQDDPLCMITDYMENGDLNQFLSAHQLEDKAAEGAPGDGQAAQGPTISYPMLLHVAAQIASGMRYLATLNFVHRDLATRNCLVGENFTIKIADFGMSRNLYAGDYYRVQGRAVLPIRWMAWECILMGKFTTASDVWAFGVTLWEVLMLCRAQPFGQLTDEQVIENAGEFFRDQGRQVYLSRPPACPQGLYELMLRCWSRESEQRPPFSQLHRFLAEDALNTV
Chain of DDR2 (Q16832 22-855): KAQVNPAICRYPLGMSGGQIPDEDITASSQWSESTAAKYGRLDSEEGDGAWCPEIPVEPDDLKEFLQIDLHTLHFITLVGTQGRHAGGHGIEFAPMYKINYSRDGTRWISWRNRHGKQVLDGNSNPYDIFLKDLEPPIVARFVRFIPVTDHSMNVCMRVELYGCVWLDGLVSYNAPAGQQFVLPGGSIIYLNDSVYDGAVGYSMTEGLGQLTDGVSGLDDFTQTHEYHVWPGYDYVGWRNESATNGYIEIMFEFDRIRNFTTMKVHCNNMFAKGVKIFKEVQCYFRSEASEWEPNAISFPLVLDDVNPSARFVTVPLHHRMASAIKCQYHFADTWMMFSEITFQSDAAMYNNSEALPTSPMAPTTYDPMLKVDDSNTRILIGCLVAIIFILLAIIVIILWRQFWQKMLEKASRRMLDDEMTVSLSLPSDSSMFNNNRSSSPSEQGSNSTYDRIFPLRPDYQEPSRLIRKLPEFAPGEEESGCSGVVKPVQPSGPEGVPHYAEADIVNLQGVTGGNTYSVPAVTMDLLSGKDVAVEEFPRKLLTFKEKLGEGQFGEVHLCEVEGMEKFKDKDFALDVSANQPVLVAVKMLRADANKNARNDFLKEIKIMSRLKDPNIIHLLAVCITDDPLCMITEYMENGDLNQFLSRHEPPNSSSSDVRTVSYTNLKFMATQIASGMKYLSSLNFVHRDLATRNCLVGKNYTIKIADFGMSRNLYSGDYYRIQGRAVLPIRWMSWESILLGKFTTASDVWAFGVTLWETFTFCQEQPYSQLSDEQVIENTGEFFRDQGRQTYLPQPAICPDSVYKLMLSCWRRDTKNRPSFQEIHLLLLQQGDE

| Compound | Ki (DDR1 [1]) | IC50 (DDR1 [2]) | Ki (DDR2) |
| --- | --- | --- | --- |
| N#Cc1cc(NC(=O)c2csc3c2CCN(Cc2cncnc2)C3)cc(C(F)(F)F)c1 [Example 14, N-(3-cyano-5-(trifluoromethyl)phenyl)-6-(pyrimidin-5-ylmethyl)-4,5,6,7-tetrahydrothieno[2,3-c]pyridine-3-carboxamide] | < 25 nM | < 25 nM | < 25 nM |
| Cc1nc(N)ncc1CN1CCc2c(C(=O)Nc3cc(F)cc(C(F)(F)F)c3)csc2C1 [Example 47, 6-((2-amino-4-methylpyrimidin-5-yl)methyl)-N-(3-fluoro-5-(trifluoromethyl)phenyl)-4,5,6,7-tetrahydrothieno[2,3-c]pyridine-3-carboxamide] | < 25 nM | 50 to 80 nM | < 25 nM |
| Nc1ncc(CN2CCc3c(C(=O)Nc4cncc(C(F)(F)F)c4)csc3C2)cn1 [Example 35, 6-((2-aminopyrimidin-5-yl)methyl)-N-(5-(trifluoromethyl)pyridin-3-yl)-4,5,6,7-tetrahydrothieno[2,3-c]pyridine-3-carboxamide] | < 25 nM | 50 to 80 nM | 25 to 50 nM |
| CC(C)(c1cc(NC(=O)c2csc3c2CCN(Cc2cncnc2)C3)no1)C(F)(F)F [Example 6, 6-(pyrimidin-5-ylmethyl)-N-(5-(1,1,1-trifluoro-2-methylpropan-2-yl)isoxazol-3-yl)-4,5,6,7-tetrahydrothieno[2,3-c]pyridine-3-carboxamide] | < 25 nM | 25 to 50 nM | < 25 nM |
| CN1CCN(c2cncc(CN3CCc4c(C(=O)Nc5cccc(C(F)(F)F)c5)csc4C3)c2)CC1=O [Example 29, 6-((5-(4-methyl-3-oxopiperazin-1-yl)pyridin-3-yl)methyl)-N-(3-(trifluoromethyl)phenyl)-4,5,6,7-tetrahydrothieno[2,3-c]pyridine-3-carboxamide] | < 25 nM | 50 to 80 nM | < 25 nM |
| Cn1nc(C(C)(C)C)cc1NC(=O)c1csc2c1CCN(Cc1cnc(N)nc1)C2 [Example 26, 6-((2-aminopyrimidin-5-yl)methyl)-N-(3-(tert-butyl)-1-methyl-1H-pyrazol-5-yl)-4,5,6,7-tetrahydrothieno[2,3-c]pyridine-3-carboxamide] | < 25 nM | 25 to 50 nM | 25 to 50 nM |
| O=C(Nc1cncc(C(F)(F)F)c1)c1csc2c1CCN(Cc1cccnc1)C2 [Example 34, 6-(pyridin-3-ylmethyl)-N-(5-(trifluoromethyl)pyridin-3-yl)-4,5,6,7-tetrahydrothieno[2,3-c]pyridine-3-carboxamide] | < 25 nM | 25 to 50 nM | < 25 nM |
| Nc1ncc(CN2CCc3c(C(=O)Nc4cncc(OC(F)(F)F)c4)csc3C2)cn1 [Example 60, 6-((2-aminopyrimidin-5-yl)methyl)-N-(5-(trifluoromethoxy)pyridin-3-yl)-4,5,6,7-tetrahydrothieno[2,3-c]pyridine-3-carboxamide] | < 25 nM | < 25 nM | < 25 nM |
| Nc1nccnc1CN1CCc2c(C(=O)Nc3cccc(C(F)(F)F)c3)csc2C1 [Example 27, 6-((3-aminopyrazin-2-yl)methyl)-N-(3-(trifluoromethyl)phenyl)-4,5,6,7-tetrahydrothieno[2,3-c]pyridine-3-carboxamide] | < 25 nM | < 25 nM | < 25 nM |
| O=C(Nc1ccc(F)c(OC(F)(F)F)c1)c1csc2c1CCN(Cc1cncnc1)C2 [Example 10, N-(4-fluoro-3-(trifluoromethoxy)phenyl)-6-(pyrimidin-5-ylmethyl)-4,5,6,7-tetrahydrothieno[2,3-c]pyridine-3-carboxamide] | < 25 nM | < 25 nM | < 25 nM |
| CN(C)Cc1ccc(NC(=O)c2csc3c2CCN(Cc2cnc(N)nc2)C3)cc1C(F)(F)F [Example 56, 6-((2-aminopyrimidin-5-yl)methyl)-N-(4-((dimethylamino)methyl)-3-(trifluoromethyl)phenyl)-4,5,6,7-tetrahydrothieno[2,3-c]pyridine-3-carboxamide] | < 25 nM | 25 to 50 nM | 25 to 50 nM |
| CN(C)[C@@H]1CCN(Cc2cc(NC(=O)c3csc4c3CCN(Cc3cnc(N)nc3)C4)cc(C(F)(F)F)c2)C1 [Example 50, (R)-6-((2-aminopyrimidin-5-yl)methyl)-N-(3-((3-(dimethylamino)pyrrolidin-1-yl)methyl)-5-(trifluoromethyl)phenyl)-4,5,6,7-tetrahydrothieno[2,3-c]pyridine-3-carboxamide] | < 25 nM | 25 to 50 nM | < 25 nM |
| CN1CCN(Cc2cc(NC(=O)c3csc4c3CCN(Cc3cccnc3)C4)cc(C(F)(F)F)c2)CC1 [Example 1, N-(3-((4-methylpiperazin-1-yl)methyl)-5-(trifluoromethyl)phenyl)-6-(pyridin-3-ylmethyl)-4,5,6,7-tetrahydrothieno[2,3-c]pyridine-3-carboxamide] | < 25 nM | 50 to 80 nM | 25 to 50 nM |
| O=C(Nc1cc(F)cc(OC(F)F)c1)c1csc2c1CCN(Cc1cncnc1)C2 [Example 12, N-(3-(difluoromethoxy)-5-fluorophenyl)-6-(pyrimidin-5-ylmethyl)-4,5,6,7-tetrahydrothieno[2,3-c]pyridine-3-carboxamide] | < 25 nM | 25 to 50 nM | < 25 nM |
| CN1CCN(Cc2cc(NC(=O)c3csc4c3CCN(Cc3cncnc3)C4)cc(C(F)(F)F)c2)CC1 [Example 2, N-(3-((4-methylpiperazin-1-yl)methyl)-5-(trifluoromethyl)phenyl)-6-(pyrimidin-5-ylmethyl)-4,5,6,7-tetrahydrothieno[2,3-c]pyridine-3-carboxamide] | 25 to 50 nM | 50 to 80 nM | 50 to 80 nM |
| O=C(Nc1cc(F)cc(C(F)(F)F)c1)c1csc2c1CCN(Cc1cnc(NC3COC3)nc1)C2 [Example 37, N-[3-fluoro-5-(trifluoromethyl)phenyl]-6-[[2-(oxetan-3-ylamino)pyrimidin-5-yl]methyl]-5,7-dihydro-4H-thieno[2,3-c]pyridine-3-carboxamide] | < 25 nM | 25 to 50 nM | < 25 nM |
| O=C(Nc1cccc(C(F)(F)F)c1)c1csc2c1CCN(Cc1cncc(F)c1)C2 [Example 24, 6-((5-fluoropyridin-3-yl)methyl)-N-(3-(trifluoromethyl)phenyl)-4,5,6,7-tetrahydrothieno[2,3-c]pyridine-3-carboxamide] | < 25 nM | 25 to 50 nM | < 25 nM |
| COc1cncc(CN2CCc3c(C(=O)Nc4cccc(C(F)(F)F)c4)csc3C2)c1 [Example 21, 6-((5-methoxypyridin-3-yl)methyl)-N-(3-(trifluoromethyl)phenyl)-4,5,6,7-tetrahydrothieno[2,3-c]pyridine-3-carboxamide] | < 25 nM | < 25 nM | < 25 nM |
| O=C(Nc1ccc(F)c(C(F)(F)F)c1)c1csc2c1CCN(Cc1cncnc1)C2 [Example 8, N-(4-fluoro-3-(trifluoromethyl)phenyl)-6-(pyrimidin-5-ylmethyl)-4,5,6,7-tetrahydrothieno[2,3-c]pyridine-3-carboxamide] | < 25 nM | 50 to 80 nM | < 25 nM |
| Cn1cncc1C(=O)N1CCc2c(C(=O)Nc3cc(F)cc(C(F)(F)F)c3)csc2C1 [Example 49, N-(3-fluoro-5-(trifluoromethyl)phenyl)-6-(1-methyl-1H-imidazole-5-carbonyl)-4,5,6,7-tetrahydrothieno[2,3-c]pyridine-3-carboxamide] | < 25 nM | < 25 nM | < 25 nM |
